According to patent US8304547B2, “Azolecarboxamide compound or salt thereof” (Astellas Pharma Inc., priority 2007, dated 2012):
pIC50: −log10 of the molar value. Where a name gives a salt, the structure may show the parent alone.

Tests used:
human trkA receptor = target: T1, human trkA receptor (Homo sapiens, UniProt P04629); experiment: trkA receptor inhibitory activity using a cell expressing a nerve growth factor receptor (NGF-dependent increase of calcium concentration in cells, FLIPR); format: cell-based; conditions: HEK293 cells stably expressing human trkA receptor; NGF-stimulated change in Ca concentration in cells
T1 construct: expressed in transfected cells
Description: Experiment to Measure trkA Receptor Inhibitory Activity Using a Cell Expressing a Nerve Growth Factor Receptor (trkA Receptor)
The trkA receptor inhibitory activity was measured by using the increase in a ligand-dependent calcium concentration in cells as an index. HEK293 cells (American Type Culture Collection) that stably expressed a human trkA receptor were dispensed onto a 96-well poly-D-lysine-coated plate (Product Name: Biocoat, PDL96W black/clear, by Nippon Becton Dickinson) to a 2×10^4 cells/well on the day before the experiment, and incubated overnight at 37° C. under 5% carbon dioxide (CO2) in a culture medium containing 10% fetal bovine serum (FBS) (Product Name: DMEM, Invitrogen Corporation). The culture medium was replaced by a loading buffer (a washing solution containing a 1.5 μM fluorescent-labelled indicator (Product Name: Fluo4-AM, Tong Ren Tang Technologies Co. Ltd.): a Hank's balanced salt solution (HBSS), 20 mM 2-[4-(2-hydroxyethyl)-1-piperazinyl]ethanesulfonic acid (HEPES)-sodium hydroxide (NaOH), 2.5 mM Probenecid, and 0.1% bovine serum albumin (BSA)), and left to stand at room temperature for 3 hours, and the cells were washed using a plate washer (Product Name: ELx405, BIO-TEK instrument Corporation) in which a washing solution had been set up. The compound that had been preliminarily dissolved and diluted in a washing solution was added thereto, and set up in a system for measuring a calcium (Ca) concentration in a cell (Product Name: FLIPR, Molecular Devices Corporation). After 5 minutes, a nerve growth factor (NGF, mouse derived 2.5S, Alomone) corresponding to 80% stimulation of a maximum response was added (to a final concentration of about 100 to 150 ng/ml) to measure the change in Ca concentrations in cells. The difference between a maximum value and a minimum value in the change of Ca concentrations in cells was determined, and kept as measurement data. With a response upon addition of NGF being set at 0%, and a response upon addition of a buffer being set at 100%, the concentration causing 50% inhibition was determined as an IC50 value. In the table, Ex represents Example Compound No. as below (the same applies hereinafter). From the results of this test, it was confirmed that the representative compounds of the present invention as below have a trkA receptor inhibitory action.

[1] = system: enhanced vascular permeability caused by Rat NGF; experiment: Inhibitory activity on enhanced vascular permeability caused by Rat NGF (Evans blue); format: in vivo; conditions: Wistar female rat, 10 mg/kg oral, NGF intracutaneously 60 minutes after administration; for inhibition in vivo at 10 mg/kg: 1 h, read-out: Inhibitory rate
Description: Evaluation of the Inhibitory Activity of the Compound on Enhanced Vascular Permeability Caused by Rat NGF
The in vivo NGF inhibitory activity of the compound was examined. A Wistar female rat (Japan SLC) was forced to be orally administered with the compound (0.5% methylcellulose solution) 10 mg/3 ml/kg or a solvent (0.5% methylcellulose solution) 3 ml/kg. Under ether anesthesia performed at 60 minutes after administration, physiological saline or 1 μg/ml NGF (NGF, mouse derived 2.5 S, Alomone) was intracutaneously administered to the back at 50 μl/site, and then immediately a 1% Evans blue solution (dissolved in physiological saline) was administered through the caudal vein at 3 ml/kg. At a time point of 10 minutes after administration, the skin on the back was taken, and shaken in formamide for 16 hours. After shaking, an absorbance of Evans blue extracted in formamide was measured by an absorbance meter (wavelength: 620 nm), and the concentration was determined by a calibration curve method. A value obtained by subtracting the concentration of Evans blue at a site administered with physiological saline from the concentration of Evans blue at a site administered with NGF was determined as an NGF-dependent action, and an inhibitory rate of the compound group was determined with a group administered with a solvent being set at 100%. In this test, it was confirmed that the representative compounds as below of the present invention have an excellent inhibitory action on enhanced vascular permeability caused by Rat NGF.

[2] = system: rat having urinary frequency caused by cyclophosphamide (CPA); experiment: Action on a rat having urinary frequency caused by cyclophosphamide (CPA); format: in vivo; conditions: CPA-treated Wistar female rat, value before administration = 100%
Description: Action of the Compound on a Rat Having Urinary Frequency Caused by Cyclophosphamide (CPA)
CPA (150 mg/5 ml/kg) was intraperitoneally administered to a Wistar female rat (Charles River Laboratories), and after 2 days, the experiment was carried out. It was forced to be orally administered with distilled water (30 ml/kg), and then confined in a metabolic cage, and urine weight and urination frequency were continuously measured for 1 hour. 3 or 10 mg/5 ml/kg of the compound (0.5% methylcellulose solution), or 5 ml/kg of a solvent (0.5% methylcellulose solution) was orally administered, and after 5 to 30 minutes, urination functions were measured after water-loading in the same manner as described above. A total urine weight was divided by the total urination frequency to determine an effective bladder capacity. With the value before administration of the compound being set at 100%, a rate of change in the effective bladder capacity caused by administration of the compound was determined.
In this test, at 2 days after CPA treatment, the effective bladder capacity had decreased (about 0.5 ml), indicating urinary frequency.

[3] = oral dose 10 mg/kg, evaluation period 5-65 minutes after administration
[4] = oral dose 10 mg/kg, evaluation period 15-75 minutes after administration

T1 sequence (P04629 33-796): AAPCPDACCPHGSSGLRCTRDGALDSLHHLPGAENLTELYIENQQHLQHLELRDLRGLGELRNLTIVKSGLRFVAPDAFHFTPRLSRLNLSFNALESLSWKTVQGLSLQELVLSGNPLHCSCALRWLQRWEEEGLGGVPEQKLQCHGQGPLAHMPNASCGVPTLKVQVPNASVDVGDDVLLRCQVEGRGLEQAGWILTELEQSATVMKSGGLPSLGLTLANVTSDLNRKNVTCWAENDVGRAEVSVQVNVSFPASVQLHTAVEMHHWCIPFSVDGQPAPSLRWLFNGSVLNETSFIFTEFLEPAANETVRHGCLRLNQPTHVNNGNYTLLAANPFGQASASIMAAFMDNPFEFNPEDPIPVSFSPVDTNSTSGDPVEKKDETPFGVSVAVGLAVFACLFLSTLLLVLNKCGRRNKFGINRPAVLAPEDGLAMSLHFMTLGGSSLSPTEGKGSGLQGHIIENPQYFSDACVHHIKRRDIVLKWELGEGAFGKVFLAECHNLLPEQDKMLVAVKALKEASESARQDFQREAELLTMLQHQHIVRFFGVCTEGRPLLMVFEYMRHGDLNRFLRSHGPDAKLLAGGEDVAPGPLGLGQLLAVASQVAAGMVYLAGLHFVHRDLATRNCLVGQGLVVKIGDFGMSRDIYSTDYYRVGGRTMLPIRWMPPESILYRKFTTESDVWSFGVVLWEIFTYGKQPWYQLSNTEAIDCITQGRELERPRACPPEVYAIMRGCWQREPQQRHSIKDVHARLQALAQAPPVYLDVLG

| SMILES | pIC50 (human trkA receptor) | inhibition in vivo at 10 mg/kg [1] | further results |
| --- | --- | --- | --- |
| O=C(Nc1ccc(CO)cc1Cl)c1csc(N2CCC(Oc3ncccn3)CC2)n1 [Ex 3] | 8.27 |  |  |
| CCOC1CCN(c2nc(C(=O)Nc3ccccc3C(=O)NC3CCOCC3)cs2)CC1 [Ex 28] | 7.57 | 92% |  |
| COCCN(C)c1nc(C(=O)Nc2ccccc2C(=O)Nc2cccnc2)cs1 [Example 103] | 8.54 | 98% | Rate in cange of effective bladder capacity ([2]; oral dose 3 mg/kg, evaluation period 5-65 minutes after administration): 145% |
| CO[C@H]1CCN(c2nc(C(=O)Nc3ccccc3C(=O)Nc3cccnc3)co2)C1 [Example 206] | 8.17 |  | Rate in cange of effective bladder capacity [2, 3]: 159% |
| Nc1cc(-c2nc(C(=O)Nc3ccccc3C(=O)Nc3cccnc3)co2)ccn1 [Example 220] | 8.38 |  |  |
| COCCN(C)c1nc(C(=O)Nc2ccccc2C(=O)NC2CCOCC2)co1 [Example 361] | 7.46 | 78% | Rate in cange of effective bladder capacity [2, 3]: 144% |
| O=C(Nc1ccncc1C(=O)NC1CCOCC1)c1csc(N2CCC(Oc3ncccn3)CC2)n1 [Example 602] | 8.96 |  | Rate in cange of effective bladder capacity [2, 4]: 152% |
| COCCNC(=O)c1cc(CN2CCOCC2(C)C)ccc1NC(=O)c1csc(N2CC[C@H](OC)C2)n1 [Example 1343] | 8.00 | 87% |  |
| COC[C@@H](C)NC(=O)c1cc(CN2CCOCC2)ccc1NC(=O)c1csc(N2CC(OC)C2)n1 [Example 1439] | 7.60 | 76% |  |
| CCOCc1ccc(NC(=O)c2csc(N3CC[C@H](OC)C3)n2)c(C(=O)NCCOC)c1 [Example 1449] | 8.06 | 76% |  |
| COCCNC(=O)c1cc(CN2CCOCC2)ccc1NC(=O)c1csc(N(C)CCOC)n1 [Example 1469] | 8.01 | 90% |  |
| COCCNC(=O)c1cc(CN2CCOCC2)ccc1NC(=O)c1csc(N2CC[C@H](F)C2)n1 [Example 1470] | 7.74 | 76% |  |

The remaining compounds from weak to strong by pIC50 (human trkA receptor), led by results:

| pIC50 (human trkA receptor) | SMILES | inhibition in vivo at 10 mg/kg [1] | further results |
| --- | --- | --- | --- |
| 7.44 | COCCNC(=O)c1cc(CN2CCOCC2)ccc1NC(=O)c1csc(N2CC(OC)C2)n1 [Example 1435] | 71% |  |
| 7.92 | COCCNC(=O)c1cc(CN2CCO[C@@H](C)C2)ccc1NC(=O)c1csc(N2CC[C@H](OC)C2)n1 [Example 1181, N-(2-[(2-methoxyethyl)carbamoyl]-4-{[(2S)-2-methylmorpholin-4-yl]methyl}phenyl)-2-[(3S)-3-methoxypyrrolidin-1-yl]-1,3-thiazole-4-carboxamide fumarate] | 81% |  |
| 8.16 | O=C(Nc1ccccc1C(=O)Nc1cccnc1)c1coc(N2CCOCC2)n1 [Ex 11] | 69% |  |
| 8.17 | CN(CC1CCOCC1)c1nc(C(=O)Nc2ccc(CN3CCOCC3)cc2C(=O)NC2CCOCC2)cs1 [Example 930] |  | Rate in cange of effective bladder capacity [2, 4]: 170%; Inhibitory rate [1]: 86% |
| 8.51 | COCCNC(=O)c1cc(CN2CCOCC2)ccc1NC(=O)c1csc(N2CCC(Oc3ncccn3)CC2)n1 [Example 564] |  | Rate in cange of effective bladder capacity [2, 4]: 146%; Inhibitory rate [1]: 90% |
| 8.68 | O=C(Nc1ccccc1S(=O)(=O)C(F)F)c1csc(N2CCC(Oc3ncccn3)CC2)n1 [Example 611] |  |  |
| 8.77 | CC(=O)c1cc(C2(C#N)CC2)ccc1NC(=O)c1csc(N2CCC(Oc3ncccn3)CC2)n1 [Example 628] |  |  |
| 9.24 | CN(CC1CCOCC1)c1nc(C(=O)Nc2ccccc2C(=O)Nc2cccnc2)cs1 [Ex 30] | 90% |  |
